How the values were obtained:
mA2a/CHO = mA2a/CHO (Mus musculus (Mouse), UniProt Q60613); test: cAMP inhibition assay in mA2a/CHO cells, 10 μM adenosine; assay type: cell-based; details: read-out: cAMP & FLIPR IC50 (nM) mA2a;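 also: compounds preincubated 30 min at 37 °C before the adenosine challenge, then 30 min further stimulation, readout after 60 min detection reagent incubation at room temperature in 384-well plates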
Description: (§1) hA2a/CHO, hA2b/CHO, hA3/CHO and mA2a/CHO (Genscript) were plated at 5×10^3 cells/well into 384-well polystyrene plates at the day of experiment. Compounds were pre-incubated with cells for 30 min at 37° C., 5% CO2. Then 10 μM adenosine was added to the cells and incubated for 30 min at 37° C., 5% CO2. Detection reagent (CISBIO) was added and the plates were incubated for 60 min at room temperature. The signal was captured by Envision.

hA2b/CHO = hA2b/CHO (Homo sapiens (Human), UniProt P29275); test: cAMP inhibition assay in hA2b/CHO cells, 10 μM adenosine; assay type: cell-based; details: read-out: cAMP & FLIPR IC50 (nM) hA2b;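 also: cells exposed to compound 30 min at 37 °C, then stimulated with adenosine a further 30 min, cAMP read after 60 min at room temperature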
Sequence of hA2b/CHO (P29275 whole entry): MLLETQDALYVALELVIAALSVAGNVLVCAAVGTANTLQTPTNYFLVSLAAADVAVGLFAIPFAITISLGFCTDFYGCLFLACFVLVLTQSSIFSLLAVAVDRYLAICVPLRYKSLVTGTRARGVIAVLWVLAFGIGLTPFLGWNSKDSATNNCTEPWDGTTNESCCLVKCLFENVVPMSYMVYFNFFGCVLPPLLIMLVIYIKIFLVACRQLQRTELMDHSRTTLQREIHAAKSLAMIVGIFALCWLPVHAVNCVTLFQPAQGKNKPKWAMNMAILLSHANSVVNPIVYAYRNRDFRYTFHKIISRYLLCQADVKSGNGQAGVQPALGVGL
Description: as §1

hA2a/CHO = hA2a/CHO (Homo sapiens (Human), UniProt P29274); test: cAMP inhibition assay in hA2a/CHO cells, 10 μM adenosine; assay type: cell-based; details: read-out: cAMP & FLIPR IC50 (nM) hA2a;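 also: compounds added to cells 30 min ahead of adenosine, then a further 30 min at 37 °C with adenosine before cAMP detection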
Sequence of hA2a/CHO (P29274 whole entry): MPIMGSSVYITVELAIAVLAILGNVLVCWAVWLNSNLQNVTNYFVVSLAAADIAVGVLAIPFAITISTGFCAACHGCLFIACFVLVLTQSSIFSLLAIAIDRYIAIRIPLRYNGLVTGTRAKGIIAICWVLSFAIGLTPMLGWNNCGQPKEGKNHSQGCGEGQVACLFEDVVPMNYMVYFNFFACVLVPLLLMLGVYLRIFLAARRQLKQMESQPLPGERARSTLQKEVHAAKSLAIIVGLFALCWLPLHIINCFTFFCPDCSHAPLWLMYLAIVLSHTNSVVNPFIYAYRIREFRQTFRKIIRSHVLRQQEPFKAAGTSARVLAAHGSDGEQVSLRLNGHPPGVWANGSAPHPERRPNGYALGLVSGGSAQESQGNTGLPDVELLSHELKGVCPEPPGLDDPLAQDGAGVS
Description: as §1

[1] = target: hADORA1/CHO (hA1 expressing) cells (Homo sapiens (Human), UniProt P30542); test: cell-based; details: FLIPR inhibition, 10 μM adenosine, read-out: cAMP & FLIPR IC50 (nM) hA1
Sequence of hADORA1/CHO (hA1 expressing) cells (P30542 whole entry): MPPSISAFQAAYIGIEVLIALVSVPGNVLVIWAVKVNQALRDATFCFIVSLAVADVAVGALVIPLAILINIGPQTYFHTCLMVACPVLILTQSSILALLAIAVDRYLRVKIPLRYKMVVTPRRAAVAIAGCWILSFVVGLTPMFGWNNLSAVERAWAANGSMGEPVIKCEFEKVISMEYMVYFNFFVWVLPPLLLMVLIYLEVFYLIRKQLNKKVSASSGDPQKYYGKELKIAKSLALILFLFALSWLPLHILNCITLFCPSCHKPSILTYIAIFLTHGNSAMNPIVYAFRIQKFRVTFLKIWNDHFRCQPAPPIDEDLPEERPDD

Sequence of mA2a/CHO (Q60613 whole entry): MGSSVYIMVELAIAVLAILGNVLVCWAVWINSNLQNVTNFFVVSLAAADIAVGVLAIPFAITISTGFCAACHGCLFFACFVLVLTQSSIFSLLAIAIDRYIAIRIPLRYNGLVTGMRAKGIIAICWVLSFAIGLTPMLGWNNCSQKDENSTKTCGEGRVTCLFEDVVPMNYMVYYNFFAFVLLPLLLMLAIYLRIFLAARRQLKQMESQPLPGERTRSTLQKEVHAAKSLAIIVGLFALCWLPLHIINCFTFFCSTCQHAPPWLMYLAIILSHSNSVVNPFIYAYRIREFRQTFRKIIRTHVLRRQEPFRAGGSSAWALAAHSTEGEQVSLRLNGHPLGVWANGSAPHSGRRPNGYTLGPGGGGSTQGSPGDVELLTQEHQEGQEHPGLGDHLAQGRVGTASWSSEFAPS

| Structure (SMILES) | IC50 (mA2a/CHO) [nM] | IC50 (hA2b/CHO) [nM] | IC50 (hA2a/CHO) [nM] | IC50 [1] [nM] |
| --- | --- | --- | --- | --- |
| Cc1cnc2ccc(-c3nc(C(=O)N4CC[C@@H](N(C)C)C4)c(N)nc3-c3ccc(F)cc3)cn12 [Example 203-1, (R)-(3-amino-5-(4-fluorophenyl)-6-(3-methylimidazo[1,2-a]pyridin-6-yl)pyrazin-2-yl)(3-(dimethylamino)pyrrolidin-1-yl)methanone] | 161 | > 10000 | 15 | 91 |
| Cc1cnc2ccc(-c3nc(C(=O)NC[C@@H]4CCCO4)c(N)nc3-n3nccn3)cn12 [Example 226, (S)-3-amino-6-(3-methylimidazo[1,2-a]pyridin-6-yl)-N-((tetrahydrofuran-2-yl)methyl)-5-(2H-1,2,3-triazol-2-yl) pyrazine-2-carboxamide] | 30 | 177 | 3 | 947 |
| Cc1cnc2ccc(-c3nc(C(=O)N[C@H]4CCN(C)C4)c(N)nc3-c3ccc(F)cc3)cn12 [Example 200-2, (S)-3-amino-5-(4-fluorophenyl)-6-(3-methylimidazo[1,2-a]pyridin-6-yl)-N-(1-methylpyrrolidin-3-yl)pyrazine-2-carboxamide] | 169 | 3540 | 12 | > 10000 |
| Cc1ccc(-c2nc(N)c(CNC(=O)c3c(F)cccc3F)nc2-c2ccc(=O)n(C)c2)o1 [Example 4, N-((3-amino-6-(1-methyl-6-oxo-1,6-dihydropyridin-3-yl)-5-(5-methylfuran-2-yl)pyrazin-2-yl)methyl)-2,6-difluorobenzamide] | 43 | 1220 | 15 | 18 |
| Cc1cnc2ccc(-c3nc(C(=O)NC[C@H]4CCOC4)c(N)nc3-n3nccn3)cn12 [Example 242, (R)-3-amino-6-(3-methylimidazo[1,2-a]pyridin-6-yl)-N-((tetrahydrofuran-3-yl)methyl)-5-(2H-1,2,3-triazol-2-yl) pyrazine-2-carboxamide] | 51 | 683 | 2.9 | 294 |
| Cc1cnc2ccc(-c3nc(C(=O)NCC4CCC(=O)N4C)c(N)nc3-c3ncco3)cn12 (racemic) [Example 212, rac-3-amino-N-((1-methyl-5-oxopyrrolidin-2-yl)methyl)-6-(3-methylimidazo [1,2-a]pyridin-6-yl)-5-(oxazol-2-yl) pyrazine-2-carboxamide] | 175 | 3430 | 34 | > 10000 |
| Nc1nc(-c2ncco2)c(-c2ccc(=O)[nH]c2)nc1C(=O)NCc1c(F)cccc1F [Example 105, 3-amino-N-(2,6-difluorobenzyl)-5-(oxazol-2-yl)-6-(6-oxo-1,6-dihydropyridin-3-yl)pyrazine-2-carboxamide] | 0.8 | 1.8 | 0.1 | 3.5 |
| CCc1cnn2ccc(-c3nc(C(=O)NC[C@@H]4CCCN4C)c(N)nc3-c3ncco3)cc12 [Example 129, (S)-3-amino-6-(3-ethylpyrazolo[1,5-a]pyridin-5-yl)-N-((1-methylpyrrolidin-2-yl)methyl)-5-(oxazol-2-yl)pyrazine-2-carboxamide] | 944 | ≥ 10000 | 140 | 10000 |
| Cc1cnc2ccc(-c3nc(C(=O)NCCN(C)c4ccccc4)c(N)nc3-c3ncco3)cn12 [Example 244, 3-amino-N-(2-(methyl(phenyl)amino)ethyl)-6-(3-methylimidazo[1,2-a]pyridin-6-yl)-5-(oxazol-2-yl)pyrazine-2-carboxamide] | 31 | 157 | 16 | 260 |
| COc1c(F)cccc1CNC(=O)c1nc(-c2cc(C)nc(C)c2)c(-c2ccc(F)cc2)nc1N [Example 54, 3-amino-6-(2,6-dimethylpyridin-4-yl)-N-(3-fluoro-2-methoxybenzyl)-5-(4-fluorophenyl)pyrazine-2-carboxamide] | 2080 | ≥ 10000 | 117 | 1590 |
| CP(C)(=O)c1cccc(F)c1CNC(=O)c1nc(-c2ccc3nccn3c2)c(-c2ncco2)nc1N [Example 96, 3-amino-N-[[2-(dimethylphosphoryl)-6-fluorophenyl]methyl]-6-[imidazo[1,2-a]pyridin-6-yl]-5-(1,3-oxazol-2-yl)pyrazine-2-carboxamide] | 7.5 | 164 | 2.5 | 136 |
| COc1cccnc1CNC(=O)c1nc(-c2cc(C)nc(C)c2)c(-c2ccc(F)cc2)nc1N [Example 71, 3-amino-6-(2,6-dimethylpyridin-4-yl)-5-(4-fluorophenyl)-N-((3-methoxypyridin-2-yl)methyl)pyrazine-2-carboxamide] | 1250 | 1940 | 64 | 388 |
| Cn1cc(-c2nc(C(=O)NCc3ncccc3OC(F)F)c(N)nc2-c2ccc(F)cc2)ccc1=O [Example 58, 3-amino-N-((3-(difluoromethoxy)pyridin-2-yl)methyl)-5-(4-fluorophenyl)-6-(1-methyl-6-oxo-1,6-dihydropyridin-3-yl)pyrazine-2-carboxamide] | 81 | 62 | 19 | 18 |
| COC(C)CNC(=O)c1nc(-c2ccc3ncc(C)n3c2)c(-c2ncco2)nc1N (racemic) [Example 228, rac-3-amino-N-(2-methoxypropyl)-6-(3-methylimidazo[1,2-a]pyridin-6-yl)-5-(oxazol-2-yl)pyrazine-2-carboxamide] | 23 | 210 | 2.7 | 2020 |
| Cc1cnc2ccc(-c3nc(C(=O)NCc4cnccc4N(C)C)c(N)nc3-c3ncco3)cn12 [Example 118, 3-amino-N-((4-(dimethylamino)pyridin-3-yl)methyl)-6-(3-methylimidazo[1,2-a]pyridin-6-yl)-5-(oxazol-2-yl)pyrazine-2-carboxamide] | 1.7 | 6.8 | 3.1 | 35 |
| Cc1ccn(-c2nc(N)c(C(=O)NC[C@H]3CCCN3C)nc2-c2ccc3ncc(C)n3c2)n1 [Example 201-2, (R)-3-amino-5-(3-methyl-1H-pyrazol-1-yl)-6-(3-methylimidazo[1,2-a]pyridin-6-yl)-N-((1-methylpyrrolidin-2-yl)methyl)pyrazine-2-carboxamide] | 519 | > 10000 | 29 | > 10000 |
| COC(C)CNC(=O)c1nc(-c2ccc3ncc(C)n3c2)c(-c2ncco2)nc1N (single isomer, unassigned; isomer 2) [Example 241, 3-amino-N-(2-methoxypropyl)-6-(3-methylimidazo[1,2-a]pyridin-6-yl)-5-(oxazol-2-yl)pyrazine-2-carboxamide (isomer 2)] | 27 | 205 | 4 | 272 |
| Cc1cnc2ccc(-c3nc(C(=O)NCC4CC4)c(N)nc3-c3ncco3)cn12 [Example 155, 3-amino-N-(cyclopropylmethyl)-6-(3-methylimidazo[1,2-a]pyridin-6-yl)-5-(oxazol-2-yl)pyrazine-2-carboxamide] | 12 | 188 | 0.6 | 3650 |

Source: patent publication US10898481B2 (priority 2018, dated 2021)
